In test [1] the target is T1, Proteasome Macropain subunit MB1 (Homo sapiens) (UniProt P28074).
T1 sequence (whole entry): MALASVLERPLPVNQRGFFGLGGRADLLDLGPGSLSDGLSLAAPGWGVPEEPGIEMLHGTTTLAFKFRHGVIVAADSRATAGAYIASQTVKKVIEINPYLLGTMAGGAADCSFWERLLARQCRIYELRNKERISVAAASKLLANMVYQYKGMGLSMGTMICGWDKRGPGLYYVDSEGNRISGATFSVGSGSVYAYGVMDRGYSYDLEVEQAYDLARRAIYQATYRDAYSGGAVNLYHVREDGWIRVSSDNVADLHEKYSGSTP
Nature of the test: Inhibition of chymotrypsin-like activity of 20S human proteasome assessed as […] at 25 ug/ml using Promega proteasome-Glo-3 substrate incubated for 15 mins by luminescence assay.

Test [2] addresses T2, Proteasome Macropain subunit MB1 (Homo sapiens, UniProt P28074).
T2 sequence (P28074 whole entry): T1 sequence (whole entry)
Kind of test: Inhibition of chymotrypsin-like activity of 20S human proteasome assessed as […] at using Promega proteasome-Glo-3 substrate incubated for 15 mins by luminescence assay.

By inhibition is commonly meant the share of the control response that was lost under treatment. Broadly, the IC50 is the midpoint of a concentration-inhibition curve.

Each structure is given as a SMILES string. Active and inactive are the calls of the source. The rule behind the calls is not given here.

With `Cn1nc(-c2ccc(OCCCC[P+](c3ccccc3)(c3ccccc3)c3ccccc3)cc2)c2ccccc2c1=O`, the inhibition result in test [1] is “inactive”.

Take `O=c1c2ccccc2c(-c2ccc(OCCCC[P+](c3ccccc3)(c3ccccc3)c3ccccc3)cc2)nn1-c1cccs1`: the IC50 in test [2] is 17.6 µM. Besides, in test [1], the inhibition turned out to be 93.2%.

With `CCn1nc(-c2ccc(OCCCC[P+](c3ccccc3)(c3ccccc3)c3ccccc3)cc2)c2ccccc2c1=O`, the inhibition entry in test [1] is “inactive”.

Regarding `CCN(CC)c1ccc(-n2nc(-c3ccc(OCCCC[N+](CC)(CC)CC)cc3)c3ccccc3c2=O)cc1`, the inhibition in test [1] was 10.3%.

As for `CNc1ccc(-n2nc(-c3ccc(OCCCC[P+](c4ccccc4)(c4ccccc4)c4ccccc4)cc3)c3ccccc3c2=O)cc1`, the 50% inhibitory concentration (IC50) in test [2] is 14.2 µM. In addition, the inhibition in test [1] is 94.3%.

Regarding `CCN(CC)c1ccc(-n2nc(-c3ccc(OCCCC[n+]4ccccc4)cc3)c3ccccc3c2=O)cc1`, the inhibition in test [1] came out at 8.6%.

`CCN(CC)c1ccc(-n2nc(-c3ccc(OCCCC[n+]4ccn(C)c4)cc3)c3ccccc3c2=O)cc1`: the inhibition in test [1] came out at 5.8%.

For the compound `O=c1c2ccccc2c(-c2ccc(OCCCC[P+](c3ccccc3)(c3ccccc3)c3ccccc3)cc2)nn1CC1CCC1`, the IC50 in test [2] was determined as 21.5 µM. Also, in test [1], the inhibition came to 70.5%.

For the compound `CCN(CC)c1ccc(-n2nc(-c3ccc(OCCCCBr)cc3)c3ccccc3c2=O)cc1`, the inhibition result in test [1] was “inactive”.

`O=c1c2ccccc2c(-c2ccc(OCCCC[P+](c3ccccc3)(c3ccccc3)c3ccccc3)cc2)nn1Cc1ccccc1`: in test [2], the IC50 turned out to be 11.9 µM. Also, the inhibition in test [1] amounted to 80.9%.

Turning to `CCN(CC)c1ccc(-n2nc(-c3ccc(OCCCCN4CCCC4)cc3)c3ccccc3c2=O)cc1`, the inhibition in test [1] worked out at 13.2%.

As for `O=c1c2ccccc2c(-c2ccc(OCCCC[P+](c3ccccc3)(c3ccccc3)c3ccccc3)cc2)nn1CC1CC1`, the IC50 in test [2] amounted to 23 µM. The inhibition in test [1] came out at 48.2%.

With `CCCn1nc(-c2ccc(OCCCC[P+](c3ccccc3)(c3ccccc3)c3ccccc3)cc2)c2ccccc2c1=O`, the inhibition in test [1] worked out at 12.1%.

As for `O=c1c2ccccc2c(-c2ccc(OCCCC[P+](c3ccccc3)(c3ccccc3)c3ccccc3)cc2)nn1-c1ccccc1`, in test [2], the IC50 turned out to be 9.88 µM. In addition, the inhibition in test [1] was 99.5%.

Turning to `O=c1c2ccccc2c(-c2ccc(OCCCC[P+](c3ccccc3)(c3ccccc3)c3ccccc3)cc2)nn1CC1CCCCC1`, the concentration for half-maximal inhibition (IC50) in test [2] is 16.1 µM. Also, in test [1], the inhibition is 84.9%.

As to `CCN(CC)c1ccc(-n2nc(-c3ccc(OCCCCN4CCOCC4)cc3)c3ccccc3c2=O)cc1`, the inhibition in test [1] turned out to be 5.1%.

`CC(C)Cn1nc(-c2ccc(OCCCC[P+](c3ccccc3)(c3ccccc3)c3ccccc3)cc2)c2ccccc2c1=O`: the half-inhibitory concentration (IC50) in test [2] is 26 µM. In addition, in test [1], the inhibition was 52.4%.

As for `CCN(CC)c1ccc(-n2nc(-c3ccc(OCCCC[P+](c4ccccc4)(c4ccccc4)c4ccccc4)cc3)c3ccccc3c2=O)cc1`, in test [2], the IC50 stood at 10.2 µM. Besides, the inhibition in test [1] is 99.1%.

As for `O=c1c2ccccc2c(-c2ccc(OCCCC[P+](c3ccccc3)(c3ccccc3)c3ccccc3)cc2)nn1-c1ccc2ccccc2c1`, in test [2], the IC50 was 13.8 µM. Besides, the inhibition in test [1] stood at 98.7%.

Take `CCCCn1nc(-c2ccc(OCCCC[P+](c3ccccc3)(c3ccccc3)c3ccccc3)cc2)c2ccccc2c1=O`: the inhibition in test [1] came out at 35.8%.

Regarding `CCN(CC)c1ccc(-n2nc(-c3ccc(OCCCCN4CCCCC4)cc3)c3ccccc3c2=O)cc1`, in test [1], the inhibition was determined as 8%.

Regarding `CCN(CC)c1ccc(-n2nc(-c3ccc(OCCCCP(c4ccccc4)c4ccccc4)cc3)c3ccccc3c2=O)cc1`, in test [1], the inhibition came to 19.6%.

On to `CCN(CC)c1ccc(-n2nc(-c3ccc(OCCCC[P+](C4CCCCC4)(C4CCCCC4)C4CCCCC4)cc3)c3ccccc3c2=O)cc1`, for which the IC50 in test [2] is 13.3 µM. The inhibition in test [1] amounted to 98.5%.

The values are drawn from ChEMBL document CHEMBL3797130, “Development of novel proteasome inhibitors based on phthalazinone scaffold” (Bioorg Med Chem Lett, 2016).
